{"source": "patent US20070014833A1", "about": "“Treatment of eye disorders with sirtuin modulators” (priority 2005, published 2007)", "key": {"[1]": {"test_system": "retinal ganglion cells (RGCs)", "assay": "Retinal ganglion cell (RGC) counts in EAE mice with acute optic neuritis, intravitreal treatment", "settings": "for RGC loss: EAE eyes with optic neuritis", "procedure": "Study outline: The neuroprotective effects of nicotinamide riboside were examined in EAE mice with optic neuritis. […] To induce EAE, mice were immunized several days later with 300 μg PLP emulsified in complete Freund's adjuvant (CFA), and control mice (without EAE) were mock-immunized with phosphate buffered saline (PBS) in CFA. All mice received 200 ng intraperitoneal pertussis toxin (PT) on the day of immunization (day 0) and again on day 2.\nEyes were treated with nicotinamide riboside by intravitreal (ivt) injections with a volume of 0.8 μl/injection of a stock solution of either 0.1 M or 0.4 M nicotinamide riboside in PBS (Groups 2, 4 and 5). […] Treament with nicotinamide riboside, as well as PBS control injections, were given ivt on days 0, 4, 7 and 11. Mice were scored daily for clinical EAE, and were sacrificed on day 14 by overdose with ketamine and xylazine.\nRetinas were dissected and whole-mounted for fluorescent microscopy. RGC numbers were quantified by counting FG-labeled cells in 12 standardized fields in each retina. Optic nerves were dissected and processed for histology. Cut sections stained by H & E were evaluated for the presence of inflammatory cells to determine acute optic neuritis. RGCs were compared between PBS-treated and nicotinamide riboside-treated eyes with optic neuritis to determine whether nicotinamide riboside prevents loss of neurons."}, "optic neuritis / EAE": {"test_system": "optic neuritis / EAE", "assay": "Incidence of optic neuritis (optic nerve histology, H & E) and clinical EAE score in PLP-immunized mice", "assay_type": "in vivo, SJL/J mice"}}}
{"molecule": "NC(=O)c1ccc[n+]([C@@H]2O[C@H](CO)[C@@H](O)[C@H]2O)c1", "note": "[nicotinamide riboside]", "values": [{"measurement": "Preserving RGCs in an acute optic neuritis model (FIG. 19)", "setting": "[1]", "result": "effective"}, {"measurement": "RGC loss", "setting": "[1]; 100 mM treatment (Group 4) vs PBS-treated (Group 3)", "result": "reduced"}, {"measurement": "RGC loss", "setting": "[1]; 400 mM treatment (Group 5) vs PBS-treated (Group 3)", "result": "completely blocked"}, {"measurement": "Neuroprotection of RGCs during acute optic neuritis in EAE", "setting": "[1]; dose-dependent manner", "result": "neuroprotective"}, {"measurement": "Toxicity to RGCs", "setting": "[1]; mouse, in vivo", "result": "not toxic"}, {"measurement": "RGC numbers, non-EAE eyes treated vs control eyes", "setting": "[1]; non-EAE eyes, Group 2 vs Group 1", "result": "no difference"}, {"measurement": "Inflammatory cell infiltration", "setting": "optic neuritis / EAE; optic nerve", "result": "does not prevent"}, {"measurement": "Clinical EAE", "setting": "optic neuritis / EAE; treated mice vs controls", "result": "did not differ"}, {"measurement": "Incidence of optic neuritis", "setting": "optic neuritis / EAE; treated mice vs controls", "result": "did not differ"}]}
